# Assay results: ChEMBL document CHEMBL2429768, “Eco-friendly synthesis and antimicrobial activities of substituted-5-(1H-indol-3-yl)methylene)-2,2-dimethyl-1,3-dioxane-4,6-dione derivatives” (2013)
# Experiments:
# Type in all cases: functional
# Aspergillus niger [1] = experiment: Antifungal activity against Aspergillus niger at 50 ug/ml after 72 hrs by agar well diffusion method; details: read-out: DIZ
# Fusarium oxysporum [2] = experiment: Antifungal activity against Fusarium oxysporum at 500 ug/ml after 72 hrs by agar well diffusion method; details: read-out: DIZ
# Fusarium oxysporum [3] = experiment: Antifungal activity against Fusarium oxysporum at 300 ug/ml after 72 hrs by agar well diffusion method; details: read-out: DIZ
# Fusarium oxysporum [4] = experiment: Antifungal activity against Fusarium oxysporum at 200 ug/ml after 72 hrs by agar well diffusion method; details: read-out: DIZ
# Fusarium oxysporum [5] = experiment: Antifungal activity against Fusarium oxysporum at 100 ug/ml after 72 hrs by agar well diffusion method; details: read-out: DIZ
# Fusarium oxysporum [6] = experiment: Antifungal activity against Fusarium oxysporum at 50 ug/ml after 72 hrs by agar well diffusion method; details: read-out: DIZ
# Rhizoctonia solani [7] = experiment: Antifungal activity against Rhizoctonia solani at 500 ug/ml after 72 hrs by agar well diffusion method; details: read-out: DIZ
# Rhizoctonia solani [8] = experiment: Antifungal activity against Rhizoctonia solani at 300 ug/ml after 72 hrs by agar well diffusion method; details: read-out: DIZ
# Rhizoctonia solani [9] = experiment: Antifungal activity against Rhizoctonia solani at 200 ug/ml after 72 hrs by agar well diffusion method; details: read-out: DIZ
# Rhizoctonia solani [10] = experiment: Antifungal activity against Rhizoctonia solani at 100 ug/ml after 72 hrs by agar well diffusion method; details: read-out: DIZ
# Rhizoctonia solani [11] = experiment: Antifungal activity against Rhizoctonia solani at 50 ug/ml after 72 hrs by agar well diffusion method; details: read-out: DIZ
# Bacillus subtilis [12] = experiment: Antibacterial activity against Bacillus subtilis at 500 ug/ml after 24 hrs by agar well diffusion method; details: read-out: DIZ
# Bacillus subtilis [13] = experiment: Antibacterial activity against Bacillus subtilis at 300 ug/ml after 24 hrs by agar well diffusion method; details: read-out: DIZ
# Bacillus subtilis [14] = experiment: Antibacterial activity against Bacillus subtilis at 200 ug/ml after 24 hrs by agar well diffusion method; details: read-out: DIZ
# Bacillus subtilis [15] = experiment: Antibacterial activity against Bacillus subtilis at 100 ug/ml after 24 hrs by agar well diffusion method; details: read-out: DIZ
# Bacillus subtilis [16] = experiment: Antibacterial activity against Bacillus subtilis at 50 ug/ml after 24 hrs by agar well diffusion method; details: read-out: DIZ
# Staphylococcus aureus [17] = experiment: Antibacterial activity against Staphylococcus aureus ATCC 6538 at 500 ug/ml after 24 hrs by agar well diffusion method; details: ATCC 6538, 24 h, read-out: DIZ
# Staphylococcus aureus [18] = experiment: Antibacterial activity against Staphylococcus aureus ATCC 6538 at 300 ug/ml after 24 hrs by agar well diffusion method; details: ATCC 6538, 24 h, read-out: DIZ
# Staphylococcus aureus [19] = experiment: Antibacterial activity against Staphylococcus aureus ATCC 6538 at 200 ug/ml after 24 hrs by agar well diffusion method; details: ATCC 6538, 24 h, read-out: DIZ
# Staphylococcus aureus [20] = experiment: Antibacterial activity against Staphylococcus aureus ATCC 6538 at 100 ug/ml after 24 hrs by agar well diffusion method; details: ATCC 6538, 24 h, read-out: DIZ
# Escherichia coli [21] = experiment: Antibacterial activity against Escherichia coli ATCC 8739 at 300 ug/ml after 24 hrs by agar well diffusion method; details: ATCC 8739, 24 h, read-out: DIZ
# Escherichia coli [22] = experiment: Antibacterial activity against Escherichia coli ATCC 8739 at 200 ug/ml after 24 hrs by agar well diffusion method; details: ATCC 8739, 24 h, read-out: DIZ
# Escherichia coli [23] = experiment: Antibacterial activity against Escherichia coli ATCC 8739 at 100 ug/ml after 24 hrs by agar well diffusion method; details: ATCC 8739, 24 h, read-out: DIZ
# Escherichia coli [24] = experiment: Antibacterial activity against Escherichia coli ATCC 8739 at 50 ug/ml after 24 hrs by agar well diffusion method; details: ATCC 8739, 24 h, read-out: DIZ
# Klebsiella pneumoniae [25] = experiment: Antibacterial activity against Klebsiella pneumoniae at 500 ug/ml after 24 hrs by agar well diffusion method; details: read-out: DIZ
# Klebsiella pneumoniae [26] = experiment: Antibacterial activity against Klebsiella pneumoniae at 300 ug/ml after 24 hrs by agar well diffusion method; details: read-out: DIZ
# Klebsiella pneumoniae [27] = experiment: Antibacterial activity against Klebsiella pneumoniae at 200 ug/ml after 24 hrs by agar well diffusion method; details: read-out: DIZ
# Klebsiella pneumoniae [28] = experiment: Antibacterial activity against Klebsiella pneumoniae at 50 ug/ml after 24 hrs by agar well diffusion method; details: read-out: DIZ
# Escherichia coli [29] = experiment: Antibacterial activity against Escherichia coli ATCC 8739 at 500 ug/ml after 24 hrs by agar well diffusion method; details: ATCC 8739, 24 h, read-out: DIZ
# Klebsiella pneumoniae [30] = experiment: Antibacterial activity against Klebsiella pneumoniae at 100 ug/ml after 24 hrs by agar well diffusion method; details: read-out: DIZ
# Staphylococcus aureus [31] = experiment: Antibacterial activity against Staphylococcus aureus ATCC 6538 at 50 ug/ml after 24 hrs by agar well diffusion method; details: ATCC 6538, 24 h, read-out: DIZ
# Aspergillus flavus [32] = experiment: Antifungal activity against Aspergillus flavus at 50 ug/ml after 72 hrs by agar well diffusion method; details: read-out: DIZ
# Aspergillus flavus [33] = experiment: Antifungal activity against Aspergillus flavus at 100 ug/ml after 72 hrs by agar well diffusion method; details: read-out: DIZ
# Aspergillus flavus [34] = experiment: Antifungal activity against Aspergillus flavus after 72 hrs by agar well diffusion method
# Aspergillus niger [35] = experiment: Antifungal activity against Aspergillus niger after 72 hrs by agar well diffusion method
# Fusarium oxysporum [36] = experiment: Antifungal activity against Fusarium oxysporum after 72 hrs by agar well diffusion method
# Rhizoctonia solani [37] = experiment: Antifungal activity against Rhizoctonia solani after 72 hrs by agar well diffusion method
# Bacillus subtilis [38] = experiment: Antibacterial activity against Bacillus subtilis after 24 hrs by agar well diffusion method
# Staphylococcus aureus [39] = experiment: Antibacterial activity against Staphylococcus aureus ATCC 6538 after 24 hrs by agar well diffusion method; details: ATCC 6538, 24 h
# Escherichia coli [40] = experiment: Antibacterial activity against Escherichia coli ATCC 8739 after 24 hrs by agar well diffusion method; details: ATCC 8739, 24 h
# Klebsiella pneumoniae [41] = experiment: Antibacterial activity against Klebsiella pneumoniae after 24 hrs by agar well diffusion method
# Aspergillus flavus [42] = experiment: Antifungal activity against Aspergillus flavus at 500 ug/ml after 72 hrs by agar well diffusion method; details: read-out: DIZ
# Aspergillus flavus [43] = experiment: Antifungal activity against Aspergillus flavus at 300 ug/ml after 72 hrs by agar well diffusion method; details: read-out: DIZ
# Aspergillus flavus [44] = experiment: Antifungal activity against Aspergillus flavus at 200 ug/ml after 72 hrs by agar well diffusion method; details: read-out: DIZ
# Aspergillus niger [45] = experiment: Antifungal activity against Aspergillus niger at 500 ug/ml after 72 hrs by agar well diffusion method; details: read-out: DIZ
# Aspergillus niger [46] = experiment: Antifungal activity against Aspergillus niger at 300 ug/ml after 72 hrs by agar well diffusion method; details: read-out: DIZ
# Aspergillus niger [47] = experiment: Antifungal activity against Aspergillus niger at 200 ug/ml after 72 hrs by agar well diffusion method; details: read-out: DIZ
# Aspergillus niger [48] = experiment: Antifungal activity against Aspergillus niger at 100 ug/ml after 72 hrs by agar well diffusion method; details: read-out: DIZ
smiles,measurement,setting,value
CC1(C)OC(=O)C(=Cc2c[nH]c3ccccc23)C(=O)O1,zone of inhibition at 50 µg/mL,Aspergillus niger [1],7 mm
same,zone of inhibition at 500 µg/mL,Fusarium oxysporum [2],31 mm
same,zone of inhibition at 300 µg/mL,Fusarium oxysporum [3],21 mm
same,zone of inhibition at 200 µg/mL,Fusarium oxysporum [4],17 mm
same,zone of inhibition at 100 µg/mL,Fusarium oxysporum [5],14 mm
same,zone of inhibition at 50 µg/mL,Fusarium oxysporum [6],10 mm
same,zone of inhibition at 500 µg/mL,Rhizoctonia solani [7],32 mm
same,zone of inhibition at 300 µg/mL,Rhizoctonia solani [8],24 mm
same,zone of inhibition at 200 µg/mL,Rhizoctonia solani [9],19 mm
same,zone of inhibition at 100 µg/mL,Rhizoctonia solani [10],15 mm
same,zone of inhibition at 50 µg/mL,Rhizoctonia solani [11],10 mm
same,zone of inhibition at 500 µg/mL,Bacillus subtilis [12],25 mm
same,zone of inhibition at 300 µg/mL,Bacillus subtilis [13],17 mm
same,zone of inhibition at 200 µg/mL,Bacillus subtilis [14],14 mm
same,zone of inhibition at 100 µg/mL,Bacillus subtilis [15],11 mm
same,zone of inhibition at 50 µg/mL,Bacillus subtilis [16],6 mm
same,zone of inhibition at 500 µg/mL,Staphylococcus aureus [17],27 mm
same,zone of inhibition at 300 µg/mL,Staphylococcus aureus [18],20 mm
same,zone of inhibition at 200 µg/mL,Staphylococcus aureus [19],16 mm
same,zone of inhibition at 100 µg/mL,Staphylococcus aureus [20],12 mm
same,zone of inhibition at 300 µg/mL,Escherichia coli [21],22 mm
same,zone of inhibition at 200 µg/mL,Escherichia coli [22],18 mm
same,zone of inhibition at 100 µg/mL,Escherichia coli [23],15 mm
same,zone of inhibition at 50 µg/mL,Escherichia coli [24],10 mm
same,zone of inhibition at 500 µg/mL,Klebsiella pneumoniae [25],33 mm
same,zone of inhibition at 300 µg/mL,Klebsiella pneumoniae [26],25 mm
same,zone of inhibition at 200 µg/mL,Klebsiella pneumoniae [27],20 mm
same,zone of inhibition at 50 µg/mL,Klebsiella pneumoniae [28],11 mm
same,zone of inhibition at 500 µg/mL,Escherichia coli [29],32 mm
same,zone of inhibition at 100 µg/mL,Klebsiella pneumoniae [30],16 mm
same,zone of inhibition at 50 µg/mL,Staphylococcus aureus [31],8 mm
same,zone of inhibition at 50 µg/mL,Aspergillus flavus [32],5 mm
same,zone of inhibition at 100 µg/mL,Aspergillus flavus [33],10 mm
same,MIC,Aspergillus flavus [34],35 mg/L
same,MIC,Aspergillus niger [35],30 mg/L
same,MIC,Fusarium oxysporum [36],25 mg/L
same,MIC,Rhizoctonia solani [37],25 mg/L
same,MIC,Bacillus subtilis [38],20 mg/L
same,MIC,Staphylococcus aureus [39],20 mg/L
same,MIC,Escherichia coli [40],10 mg/L
same,MIC,Klebsiella pneumoniae [41],10 mg/L
same,zone of inhibition at 500 µg/mL,Aspergillus flavus [42],24 mm
same,zone of inhibition at 300 µg/mL,Aspergillus flavus [43],17 mm
same,zone of inhibition at 200 µg/mL,Aspergillus flavus [44],13 mm
same,zone of inhibition at 500 µg/mL,Aspergillus niger [45],26 mm
same,zone of inhibition at 300 µg/mL,Aspergillus niger [46],19 mm
same,zone of inhibition at 200 µg/mL,Aspergillus niger [47],15 mm
same,zone of inhibition at 100 µg/mL,Aspergillus niger [48],11 mm
